Results on seven molecules are retold here after ChEMBL document CHEMBL2010784 (ACS Med Chem Lett, 2011).

Data set [1] has as its system Human respirovirus 3. In words: Antiviral activity against Parainfluenza-3 virus infected in african green monkey Vero cells assessed as inhibition of viral-induced cytopathogenicity. It is filed as functional, organism-based. Background: Damage to the host cells serves as the signal in cytopathic effect assays.
For data set [2], the system named is Respiratory syncytial virus. In words: Antiviral activity against RSV infected in human HeLa cells assessed as inhibition of viral-induced cytopathogenicity. Format: functional, organism-based.
The subject of data set [3] is Punta Toro virus. In words: Antiviral activity against Punta Toro virus infected in african green monkey Vero cells assessed as inhibition of viral-induced cytopathogenicity. It is filed as functional, organism-based.
For data set [4], the system named is Influenza A virus. Kind of data set: Antiviral activity against Influenza A virus H1N1 infected in MDCK cells assessed as inhibition of viral-induced cytopathogenicity. Format: functional, organism-based.
Data set [5] relates to Sindbis virus. In words: Antiviral activity against Sindbis virus infected in african green monkey Vero cells assessed as inhibition of viral-induced cytopathogenicity. It is filed as functional, organism-based.
Data set [6] has as its system Feline coronavirus. In words: Antiviral activity against Feline coronavirus infected in CrFK cells assessed as inhibition of viral-induced cytopathogenicity. It is filed as functional, organism-based.
For data set [7], the system named is Vesicular stomatitis virus. In words: Antiviral activity against VSV infected in human HeLa cells assessed as inhibition of viral-induced cytopathogenicity. It is filed as functional, organism-based.
Data set [8] concerns Felid alphaherpesvirus 1. In words: Antiviral activity against Feline herpes virus infected in CrFK cells assessed as inhibition of viral-induced cytopathogenicity. Format: functional, organism-based.
Data set [9] deals with Influenza A virus. Kind of data set: Antiviral activity against Influenza A virus H3N2 infected in MDCK cells assessed as inhibition of viral-induced cytopathogenicity. Format: functional, organism-based.
For data set [10], the system named is Mammalian orthoreovirus 1. Kind of data set: Antiviral activity against Reovirus-1 infected in african green monkey Vero cells assessed as inhibition of viral-induced cytopathogenicity. It is filed as functional, organism-based.
Data set [11] concerns Human immunodeficiency virus 1. Kind of data set: Antiviral activity against HIV-1 infected in human MT-4 cells assessed as inhibition of viral-induced cytopathogenicity after 4 days by MTT assay. The following applies: Human immunodeficiency virus 1, MT4, 96 h. Format: functional, organism-based.
Data set [12] can be described thus: (§1) Cytotoxicity against human MT4 cells after 4 days by MTT assay. Format: cell-based. The following applies: MT4 cells.
In data set [13] the test system is Coxsackievirus B4. In words: Antiviral activity against Coxsackie B4 virus infected in african green monkey Vero cells assessed as inhibition of viral-induced cytopathogenicity. It is filed as functional, organism-based.
Data set [14] relates to Influenza B virus. In words: Antiviral activity against influenza B virus infected in MDCK cells assessed as inhibition of viral-induced cytopathogenicity. Format: functional, organism-based.
The nature of data set [15]: Selectivity index, ratio of CC50 for human MT-4 cells to EC50 for HIV-1. Format: toxicity, cell-based, MT4. The settings on record: read-out: Ratio CC50/EC50.
Data set [16] can be described thus: Cytotoxicity against human HEL cells assessed as changes in cell morphology by microscopy. Format: cell-based.
For data set [17], the system named is Human alphaherpesvirus 1. In words: Antiviral activity against ACV-resistant TK-deficient HSV-1 KOS infected in HEL cells assessed as inhibition of viral-induced cytopathogenicity. It is filed as functional, organism-based. The settings on record: Human alphaherpesvirus 1, KOS.
The subject of data set [18] is Human alphaherpesvirus 1. In words: Antiviral activity against HSV-1 KOS infected in HEL cells assessed as inhibition of viral-induced cytopathogenicity. Format: functional, organism-based. The following applies: Human alphaherpesvirus 1, KOS.
The subject of data set [19] is Human alphaherpesvirus 2. In words: Antiviral activity against HSV-2 G infected in HEL cells assessed as inhibition of viral-induced cytopathogenicity. It is filed as functional, organism-based. The settings on record: Human alphaherpesvirus 2, strain G.
Data set [20] in a line: Selectivity index, ratio of MCC for human HEL cells to EC50 for HSV-2 G.
In data set [21] the test system is MT4. The description is as §1. It is filed as cell-based. The following applies: mt4, 96 h.
The nature of data set [22]: Selectivity index, ratio of MCC for human HEL cells to EC50 for HSV-1 KOS.

Active and inactive are the calls of the source. No cut-off for these calls is given here.

For `C#C[C@]1(CO)O[C@@H](n2cnc3c(=O)[nH]c(N)nc32)C[C@@H]1O`, the outcome in data set [1], in data set [2], in data set [3], in [4], in data set [5] and in data set [6] was inactive. Besides, the outcome in data set [7], in data set [8], in data set [9], in [10], in data set [13] and in [14] was inactive. The half-maximal effective concentration (EC50) in [11] came out at 1.5 nM. In data set [12], this molecule came in with a CC50 at 96 h of 1400 nM. Besides, in [15], the selectivity ratio is 933.

`C#C[C@]1(CO)O[C@@H](n2cnc3c(N)ncnc32)C[C@@H]1O`: the outcome in [1], in data set [2], in data set [3], in [4], in data set [5] and in data set [6] was inactive. In addition, the outcome in [7], in data set [8], in data set [9], in [10], in data set [13] and in data set [14] was inactive. In addition, the EC50 in data set [11] came to 9.8 nM. The molecule further came in with a CC50 at 96 h in [12] of 16000 nM. Moreover, the selectivity ratio in data set [15] came out at 1630.

`C#C[C@]1(CO)S[C@@H](n2ccc(N)nc2=O)C[C@@H]1O`: the result in [1], in [2], in [3], in data set [4], in data set [5] and in [6] was inactive. Further, the result in [7], in data set [8], in data set [9], in data set [10], in data set [13] and in [14] was inactive. Further, the MCC in data set [16] is above 100 µM. For the same molecule, the EC50 is 2500 nM in data set [17], 11 nM in data set [11], 2000 nM in [18] and 1500 nM in data set [19]. Further, the “Selectivity Index” value in data set [20] and in [22] was above 50 each time. For the same molecule, the CC50 in [21] came out at 6000 nM. In [15], the selectivity ratio worked out at 545.

Consider `C#C[C@]1(CO)S[C@@H](n2cnc3c(=O)[nH]c(N)nc32)C[C@@H]1O`, for which the result in data set [1], in data set [2], in data set [3], in data set [4], in [5] and in data set [6] was inactive. The result in data set [7], in [8], in data set [9], in [10], in [13] and in data set [14] was inactive. The MCC in data set [16] was above 100 µM. The EC50 came out at 4500 nM in [17], 5.5 nM in data set [11], 3000 nM in data set [18] and 1500 nM in data set [19]. The “Selectivity Index” value in data set [20] and in data set [22] was above 50 each time. Also, the CC50 in data set [21] is above 100000 nM. Besides, the selectivity ratio in data set [15] was above 18200.

On to `C#C[C@]1(CO)S[C@@H](n2cnc3c(N)ncnc32)C[C@@H]1O`, for which the outcome in [1], in data set [2], in data set [3], in [4], in [5] and in data set [6] was inactive. For the same molecule, the outcome in [7], in data set [8], in [9], in data set [10], in data set [13] and in [14] was inactive. For the same molecule, in [16], the MCC is above 100 µM. Also, the EC50 was 8000 nM in [17], 87 nM in data set [11], 7000 nM in [18] and 4000 nM in data set [19]. Further, the CC50 in data set [21] is above 20000 nM. Further, in [15], the selectivity ratio was above 230.

Turning to `C#C[C@]1(CO)O[C@@H](n2ccc(N)nc2=O)C[C@@H]1O`, the result in data set [1], in data set [2], in data set [3], in data set [5], in [6] and in [7] was inactive. Also, the outcome in data set [8], in data set [10] and in [13] was inactive. The EC50 in data set [11] stood at 4.8 nM.

On to `Nc1nc2c(ncn2COC(CO)CO)c(=O)[nH]1` [GANCICLOVIR], for which the MCC in [16] is above 100 µM.

The term EC50 denotes the concentration giving half of the maximal effect. As usually defined, the CC50 is the concentration giving 50% cytotoxicity.
